Experimental data from patent US10851075B2, “Stat3 pathway inhibitors and cancer stem cell inhibitors” (Sumitomo Dainippon Pharma Oncology, Inc., priority 2007, dated 2020).
pIC50: −log10 of the molar value. Like-named read-outs stand apart in the source and are kept apart here.

What was measured:
DU145 cells = assay: MTT cell viability, DU145; format: cell-based; details: Homo sapiens, DU-145, MTT at 24 hours; for IC50: DU145, Table 4, read-out: IC50 (μM) DU145
Excerpt: (§1) Cell Culture: HeLa, DU145, H1299, DLD1, SW480, A549, MCF7, LN18, HCT116, HepG2, Paca2, Panel, LNcap, FaDu, HT29, and PC3 cells (ATCC, Manassas, Va.) were maintained in Dulbecco's Modified Eagle Medium (DMEM) (Invitrogen, Carlsbad, Calif.) supplemented with 10% fetal bovine serum (MS) (Gemini Bio-Products, West Sacramento, Calif.) and 5% penicillin/streptomycin/amphotercin B (Invitrogen).
(§2) Cell Viability Determination: For 3-(4,5 dimethylthiazol-2-yl)-2,5-diphenyltetrazolium (MTT) (Sigma-Aldrich, St. Louis, Mo.) analysis, cells were plated in 96 well plates at 10,000 cells per well. 24 hours after plating, compound was added to cells at indicated doses. 22 hours following compound addition, MTT was added to each well (0.5 mg/ml, final concentration) and plates were incubated for an additional 2 hours at 37° C., Medium was then aspirated and the formazan product was solubilized in 100 μl of isopropyl alcohol. The absorbance of each well was measured at 570 nm using a microplate reader.
(§3) Identification of compounds that are apoptotic to a broad spectrum of cancer cells in vitro. Cells plated in 96 well plates and treated with indicated compounds were subjected to MTT analysis at 24 hours following compound treatment to determine cell viability.

[1] = test system: Stat3 transcription activity; assay: Stat3-luciferase (Stat3-Luc) reporter assay in HeLa cells, OSM stimulated; format: cell-based; details: Homo sapiens, compound 30 minutes before 25 ng/ml oncostatin M, 6 hours, read-out: IC50 in Stat3-Luc assays
Method: Luciferase Reporter Assay: HeLa Cells were co-transfected with Stat3-luciferase (Stat3-Luc) reporter vector (Panomics, Fremont, Calif.) and Renilla luciferase (Promega, Madison, Wis.) using Lipofectamine 2000 as described by the manufacturer (Invitrogen). Following transfection, cells were maintained in medium containing 0.5% FBS for 24 hours. Cells were then treated with the indicated compound for 30 minutes prior to the addition of 25 ng/ml oncostatin M (OSM) (R&D Systems, Minneapolis, Minn.) to the medium. 6 hours following OSM addition, cells were harvested and levels of firefly and renilla luciferase were measured using the Dual-Glo Luciferase Assay System as described by the manufacturer (Promega).
Inhibition of Stat3 transcription activity. Compounds were tested for their ability to inhibit Stat3 transcription activation activity in cells using a Stat3-luciferase (Stat3-luc) reporter construct. Cells transfected with Stat3-luc were cultured in reduced serum medium prior to addition of indicated compound for 30 minutes. Cells were then stimulated with 25 ng/ml oncostatin (OSM) for 6 hours followed by detection of Stat3-luc reporter activity.

HeLa cells = assay: MTT cell viability, HeLa; format: cell-based; details: Homo sapiens, MTT at 24 hours; for IC50: Hela, Table 4, read-out: IC50 (μM) Hela
Excerpt: as §1, §2, §3

H1299 cells = assay: MTT cell viability, H1299; format: cell-based; details: Homo sapiens, NCI-H1299, MTT at 24 hours; for IC50: H1299, Table 4, read-out: IC50 (μM) H1299
Excerpt: as §1, §2, §3

DLD1 cells = assay: MTT cell viability, DLD1; format: cell-based; details: Homo sapiens, DLD-1; DLD1, Colon; MTT at 24 hours; Table 3
Excerpt: as §1, §2, §3

A549 cells = assay: MTT cell viability, A549; format: cell-based; details: Homo sapiens; A549, Lung; MTT at 24 hours following compound treatment; Table 3
Excerpt: as §1, §2, §3

SW480 cells = assay: MTT cell viability, SW480; format: cell-based; details: Homo sapiens; SW480, Colon; MTT at 24 hours; Table 3
Excerpt: as §1, §2, §3

[2] = target: T1, Stat3 DNA-binding activity (Homo sapiens, UniProt P40763); assay: Stat3 DNA binding assay (EMSA), HeLa nuclear extract; format: biochemical; details: HeLa nuclear extract, FIG. 6A/6B
T1 construct: endogenous in cells; host or cells: HeLa cells (nuclear extract)
Method: STAT3 DNA Binding Assay: Electrophoretic mobility shift assay (EMSA) was performed as described by the manufacturer (Li-Cor Biosciences, Lincoln, Nebr.). Briefly, nuclear extracts were made from HeLa cells using the NucBuster Protein Extraction Kit as described by the manufacturer (EMD Biosciences, San Diego, Calif.). 5 μg of nuclear extract was pre-incubated with the indicated dose of indicated compound for 30 minutes prior to a 15-minute incubation with the IR700-labeled consensus Stat3 oligonucleotide. Samples were then electrophoresed on a polyacrylamide gel and directly scanned using the Odyssey infrared imaging system (Li-Cor Biosciences). For the enzyme-linked immunosorbent assay (ELISA), 5 μg of nuclear extract was preincubated with indicated concentration of indicated compound for 30 minutes prior to the addition of biotinylated oligo (5′-Biotin-[…]-3′). Stat3-DNA complexes were then captured on streptavidin coated 96 well plates (Pierce, Rockford, Ill.). Bound complexes were then incubated with Stat3 polyclonal antibody (Santa Cruz Biotechnology, Santa Cruz, Calif.) followed by anti-rabbit HRP conjugated secondary antibody (GE Healthcare, Pittsburgh, Pa.). Bound antibody was then visualized by addition of TMB substrate (Pierce) and absorbance measured at 450 nm.
Inhibition of Stat3 DNA-binding activity. Nuclear extracts from HeLa cells, which contain constitutively activated Stat3 as detected by phoshporylation at the tyrosine 705 residue, were used to perform Stat3 EMSAs to monitor Stat3 DNA binding activity. Nuclear extracts were incubated with indicated compound prior to incubation with IR700-labeled Stat3 consensus oligonucleotide. Binding of Stat3 to the oligonucleotide was monitored by gel electrophoresis and detection using a LiCor Odyssey infrared scanner.
To calculate the inhibition %, the density of the untreated Stat3 retarded band (control) was set as 100 and the inhibition % was the difference between the control and the relative DNA binding activity of the drug-treated samples.

MCF7 cells = assay: MTT cell viability, MCF7; format: cell-based; details: Homo sapiens; MCF7, Breast; MTT at 24 hours; Table 3
Excerpt: as §1, §2, §3

PC3 cells = assay: MTT cell viability, PC3; format: cell-based; details: Homo sapiens, PC-3; PC3, Prostate; MTT at 24 hours; Table 3
Excerpt: as §1, §2, §3

HT29 cells = assay: MTT cell viability, HT29; format: cell-based; details: Homo sapiens, HT-29; HT29, Colon; MTT at 24 hours; Table 3
Excerpt: as §1, §2, §3

HCT116 cells = assay: MTT cell viability, HCT116; format: cell-based; details: Homo sapiens, HCT-116; HCT116, Colon; MTT at 24 hours; Table 3
Excerpt: as §1, §2, §3

Panc1 cells = assay: MTT cell viability, Panc1; format: cell-based; details: Homo sapiens, PANC-1; Panc1, Pancreas; MTT at 24 hours; Table 3
Excerpt: as §1, §2, §3

Paca2 cells = assay: MTT cell viability, Paca2; format: cell-based; details: PaCa-2; Paca2, Pancreas; MTT at 24 hours; Table 3
Excerpt: as §1, §2, §3

T1 sequence (P40763 whole entry): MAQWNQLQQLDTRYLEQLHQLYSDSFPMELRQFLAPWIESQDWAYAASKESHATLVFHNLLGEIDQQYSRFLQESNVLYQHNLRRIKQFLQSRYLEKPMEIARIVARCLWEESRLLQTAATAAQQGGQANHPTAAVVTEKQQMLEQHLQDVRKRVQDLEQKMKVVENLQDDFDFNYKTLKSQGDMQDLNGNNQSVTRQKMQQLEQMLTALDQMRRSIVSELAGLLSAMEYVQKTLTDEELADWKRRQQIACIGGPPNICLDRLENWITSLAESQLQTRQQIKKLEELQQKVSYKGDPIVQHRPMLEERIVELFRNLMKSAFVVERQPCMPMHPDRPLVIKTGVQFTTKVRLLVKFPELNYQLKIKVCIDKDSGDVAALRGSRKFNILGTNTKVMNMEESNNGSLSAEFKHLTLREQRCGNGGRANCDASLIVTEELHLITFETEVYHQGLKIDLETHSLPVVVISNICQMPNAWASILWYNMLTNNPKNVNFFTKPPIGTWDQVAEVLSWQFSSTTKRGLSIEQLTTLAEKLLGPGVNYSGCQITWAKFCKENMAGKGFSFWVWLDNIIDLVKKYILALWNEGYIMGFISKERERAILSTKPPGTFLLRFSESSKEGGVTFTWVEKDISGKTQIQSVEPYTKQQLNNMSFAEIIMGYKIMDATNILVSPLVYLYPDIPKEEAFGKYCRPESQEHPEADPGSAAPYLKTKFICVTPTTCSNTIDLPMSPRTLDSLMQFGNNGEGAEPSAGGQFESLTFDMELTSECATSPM

Row | SMILES | IC50 (DU145 cells) [µM] | pIC50 [1] | IC50 (HeLa cells) [µM] | IC50 (H1299 cells) [µM] | also measured
1 | O=C(O)c1cc2c(o1)C(=O)c1ccccc1C2=O [Compound 405] | 1.41 |  |  |  | 
2 | COc1ccc(C(=O)c2cc3c(s2)C(=O)c2ccccc2C3=O)cc1 [Compound 407] | 2.1 | ~5.30 | 3.78 | 4.11 | 
3 | O=C(c1ccc(O)cc1)c1cc2c(s1)C(=O)c1ccccc1C2=O [Compound 408] | 0.554 | ~5.70 | 4.47 | 3.62 | 
4 | COc1ccc(C(=O)c2cc3c(s2)C(=O)c2ccccc2C3=O)cc1OC [Compound 410] | 0.239 | ~6.00 | 2.52 | 1.88 | 
5 | O=C(c1ccc(O)c(O)c1)c1cc2c(s1)C(=O)c1ccccc1C2=O [Compound 411] | 0.616 |  | 14.7 | 14.1 | 
6 | O=Cc1cc2c(o1)C(=O)c1ccccc1C2=O [Compound 414] | 14.1 |  | 13 | 11.3 | 
7 | O=C(c1ccccc1)c1cc2c(o1)C(=O)c1cc(Br)ccc1C2=O [Compound 415] | 9.8 |  | 10.5 | 6.5 | 
8 | CC(=O)c1cc2c(o1)C(=O)c1cc(Cl)ccc1C2=O [Compound 416] | 0.211 |  | 0.711 | 0.337 | pIC50 (DLD1 cells): 6.27; pIC50 (A549 cells): 5.72; pIC50 (SW480 cells): 6.36; inhibition of Stat3 DNA binding (in words) [2]: inhibits Stat3 DNA-binding activity; pIC50 (MCF7 cells): 6.12; pIC50 (PC3 cells): 5.51; pIC50 (HeLa cells; HeLa, Cervix, Table 3, read-out: IC50): 6.21; pIC50 (H1299 cells; H1299, Lung, Table 3, read-out: IC50): 6.60; pIC50 (HT29 cells): 5.72; pIC50 (DU145 cells; DU145, Prostate, Table 3, read-out: IC50): 6.66; pIC50 (HCT116 cells): 6.16; pIC50 (Panc1 cells): 5.59; pIC50 (Paca2 cells): 6.68

Further lines, with some results ahead:

Row | IC50 (DU145 cells) [µM] | pIC50 [1] | IC50 (HeLa cells) [µM] | IC50 (H1299 cells) [µM] | SMILES | also measured
9 | 0.442 | ~5.70 | 1.88 | 1.03 | CC(=O)c1cc2c(s1)C(=O)c1ccccc1C2=O [Compound 409] | 
10 | 0.721 |  | 4.38 | 1.9 | COc1ccc(C(=O)c2cc3c(o2)C(=O)c2ccccc2C3=O)cc1OC [Compound 413] | 
11 | 0.768 |  |  |  | O=C(c1cccc(Cl)c1)c1cc2c(o1)C(=O)c1ccccc1C2=O [Compound 417] | 
12 | 1.82 |  |  |  | O=C(c1ccccc1)c1cc2c(o1)C(=O)c1cc(F)ccc1C2=O [Compound 419] | 
